Square brackets hold non-standard residues; d marks the D form. Peptide text beside a SMILES is read from it.
Assays:
Assay type in all cases: cell-based
Escherichia coli D21 = conditions: 100% inhibition of growth after 18–20 h
Bacillus megaterium Bm11 = conditions: 100% inhibition of growth after 18–20 h
[1] = system: human red blood cells (hRBC); assay: Hemolysis of human red blood cells; conditions: hRBC, 30 min at 37° C.
Procedure: (ix) Hemolysis of human red blood cells. The peptides were tested for their hemolytic activities against human red blood cells (hRBC). Fresh hRBC with EDTA were rinsed 3 times with PBS (35 mM phosphate buffer/0.15 M NaCl, pH 7.3) by centrifugation for 10 min at 800 g and resuspended in PBS. Peptides dissolved in PBS were then added to 50 μL of a solution of the stock hRBC in PBS to reach a final volume of 100 μL (final erythrocyte concentration, 5% v/v). The resulting suspension was incubated under agitation for 30 min at 37° C. The samples were then centrifuged at 800 g for 10 min. Release of hemoglobin was monitored by measuring the absorbance of the supernatant at 540 nm. Controls for zero hemolysis (blank) and 100% hemolysis consisted of hRBC suspended in PBS and Triton 1%, respectively.

CC[C@H](C)[C@H](NC(=O)[C@H](CCCCN)NC(=O)[C@@H]1CCCN1C(=O)[C@@H](NC(=O)[C@H](CC(C)C)NC(=O)[C@H](C)NC(=O)[C@H](Cc1ccccc1)NC(=O)[C@H](Cc1ccccc1)NC(=O)CN)[C@@H](C)CC)C(=O)N[C@H](C(=O)N[C@@H](CO)C(=O)N[C@@H](CO)C(=O)N1CCC[C@@H]1C(=O)N[C@@H](CC(C)C)C(=O)N[C@@H](Cc1ccccc1)C(=O)N[C@@H](CCCCN)C(=O)N[C@H](C(=O)N[C@@H](CC(C)C)C(=O)N[C@@H](CC(C)C)C(=O)N[C@@H](CO)C(=O)N[C@@H](C)C(=O)N[C@H](C(=O)NCC(=O)N[C@@H](CO)C(=O)N[C@@H](C)C(=O)N[C@@H](CC(C)C)C(=O)N[C@@H](CO)C(=O)N[C@@H](CO)C(=O)N[C@@H](CO)C(=O)NCC(=O)NCC(=O)N[C@@H](CCC(N)=O)C(=O)N[C@@H](CCC(=O)NCCN)C(=O)NCCN)C(C)C)[C@@H](C)O)[C@@H](C)CC [Peptide 9, [D]P^13-TApar]
Minimal Inhibitory Concentration E. coli (D21) (Escherichia coli D21): 3 µM
Minimal Inhibitory Concentration B. megaterium (Bm11) (Bacillus megaterium Bm11): 1.5 µM
% hemolysis at 50 μM peptide [1]: 83%

CC[C@H](C)[C@H](NC(=O)[C@H](CCCCN)NC(=O)[C@@H]1CCCN1C(=O)[C@@H](NC(=O)[C@@H](CC(C)C)NC(=O)[C@H](C)NC(=O)[C@H](Cc1ccccc1)NC(=O)[C@H](Cc1ccccc1)NC(=O)CN)[C@@H](C)CC)C(=O)N[C@H](C(=O)N[C@@H](CO)C(=O)N[C@@H](CO)C(=O)N1CCC[C@H]1C(=O)N[C@@H](CC(C)C)C(=O)N[C@@H](Cc1ccccc1)C(=O)N[C@@H](CCCCN)C(=O)N[C@H](C(=O)N[C@@H](CC(C)C)C(=O)N[C@H](CC(C)C)C(=O)N[C@@H](CO)C(=O)N[C@@H](C)C(=O)N[C@H](C(=O)NCC(=O)N[C@@H](CO)C(=O)N[C@@H](C)C(=O)N[C@@H](CC(C)C)C(=O)N[C@@H](CO)C(=O)N[C@@H](CO)C(=O)N[C@@H](CO)C(=O)NCC(=O)NCC(=O)N[C@@H](CCC(N)=O)C(=O)N[C@@H](CCC(=O)NCCN)C(=O)NCCN)C(C)C)[C@@H](C)O)[C@@H](C)CC [Peptide 10, [D]L^5L^19-TApar]
Minimal Inhibitory Concentration E. coli (D21) (Escherichia coli D21): 3 µM
Minimal Inhibitory Concentration B. megaterium (Bm11) (Bacillus megaterium Bm11): 1.3 µM
% hemolysis at 50 μM peptide [1]: 56%

CC[C@H](C)[C@H](NC(=O)[C@H](CCCCN)NC(=O)[C@H]1CCCN1C(=O)[C@@H](NC(=O)[C@H](CC(C)C)NC(=O)[C@H](C)NC(=O)[C@H](Cc1ccccc1)NC(=O)[C@H](Cc1ccccc1)NC(=O)CN)[C@@H](C)CC)C(=O)N[C@H](C(=O)N[C@@H](CO)C(=O)N[C@@H](CO)C(=O)N1CCC[C@H]1C(=O)N[C@@H](CC(C)C)C(=O)N[C@@H](Cc1ccccc1)C(=O)N[C@@H](CCCCN)C(=O)N[C@H](C(=O)N[C@@H](CC(C)C)C(=O)N[C@H](CC(C)C)C(=O)N[C@@H](CO)C(=O)N[C@@H](C)C(=O)N[C@H](C(=O)NCC(=O)N[C@@H](CO)C(=O)N[C@@H](C)C(=O)N[C@@H](CC(C)C)C(=O)N[C@@H](CO)C(=O)N[C@@H](CO)C(=O)N[C@@H](CO)C(=O)NCC(=O)NCC(=O)N[C@@H](CCC(N)=O)C(=O)N[C@@H](CCC(=O)NCCN)C(=O)NCCN)C(C)C)[C@@H](C)O)[C@@H](C)CC [Peptide 11, [D]P^7L^19-TApar]
Minimal Inhibitory Concentration E. coli (D21) (Escherichia coli D21): 3 µM
Minimal Inhibitory Concentration B. megaterium (Bm11) (Bacillus megaterium Bm11): 1.5 µM
% hemolysis at 50 μM peptide [1]: 82%

CC[C@H](C)[C@H](NC(=O)[C@H](CCCCN)NC(=O)[C@H]1CCCN1C(=O)[C@@H](NC(=O)[C@H](CC(C)C)NC(=O)[C@H](C)NC(=O)[C@H](Cc1ccccc1)NC(=O)[C@H](Cc1ccccc1)NC(=O)CN)[C@@H](C)CC)C(=O)N[C@H](C(=O)N[C@@H](CO)C(=O)N[C@@H](CO)C(=O)N1CCC[C@H]1C(=O)N[C@@H](CC(C)C)C(=O)N[C@@H](Cc1ccccc1)C(=O)N[C@@H](CCCCN)C(=O)N[C@H](C(=O)N[C@@H](CC(C)C)C(=O)N[C@@H](CC(C)C)C(=O)N[C@@H](CO)C(=O)N[C@@H](C)C(=O)N[C@H](C(=O)NCCN)C(C)C)[C@@H](C)O)[C@@H](C)CC [Peptide 17, [D]P^7[1-22]-TApar]
Minimal Inhibitory Concentration E. coli (D21) (Escherichia coli D21): 10 µM
Minimal Inhibitory Concentration B. megaterium (Bm11) (Bacillus megaterium Bm11): 1 µM
% hemolysis at 50 μM peptide [1]: 17%

CC(C)C[C@H](NC(=O)[C@H](CC(C)C)NC(=O)[C@@H](CC(C)C)NC(=O)[C@H](N)CCCCN)C(=O)N[C@H](CCCCN)C(=O)N[C@H](CC(C)C)C(=O)N[C@H](CC(C)C)C(=O)N[C@@H](CC(C)C)C(=O)N[C@H](CCCCN)C(=O)N[C@@H](CC(C)C)C(=O)N[C@H](CC(C)C)C(=O)N[C@H](CCCCN)C(N)=O [Peptide 26, [D]-K^1,5,9,12L^2,6,7,11-K4L8] (H-[dK][dL]LL[dK][dL][dL]L[dK]L[dL][dK]-NH2)
Minimal Inhibitory Concentration E. coli (D21) (Escherichia coli D21): 4 µM
Minimal Inhibitory Concentration B. megaterium (Bm11) (Bacillus megaterium Bm11): 0.5 µM
% hemolysis at 100 μM [1]: 0%

CC(C)C[C@H](NC(=O)[C@H](CC(C)C)NC(=O)[C@@H](CC(C)C)NC(=O)[C@H](N)CCCCN)C(=O)N[C@H](CCCCN)C(=O)N[C@H](CC(C)C)C(=O)N[C@H](CCCCN)C(=O)N[C@@H](CC(C)C)C(=O)N[C@H](CCCCN)C(=O)N[C@@H](CC(C)C)C(=O)N[C@H](CC(C)C)C(=O)N[C@H](CCCCN)C(N)=O [Peptide 27, [D]-K^1,5,7,9,12L^2,6,11-K5L7] (H-[dK][dL]LL[dK][dL][dK]L[dK]L[dL][dK]-NH2)
Minimal Inhibitory Concentration E. coli (D21) (Escherichia coli D21): 7 µM
Minimal Inhibitory Concentration B. megaterium (Bm11) (Bacillus megaterium Bm11): 0.2 µM
% hemolysis at 100 μM [1]: 0%

CC(C)C[C@H](NC(=O)[C@@H](CC(C)C)NC(=O)[C@H](CC(C)C)NC(=O)[C@@H](CC(C)C)NC(=O)[C@@H](N)CCCCN)C(=O)N[C@@H](CCCCN)C(=O)O [Peptide 28, [D]-L^2,4-K2L4] (H-K[dL]L[dL]LK-OH)
Minimal Inhibitory Concentration E. coli (D21) (Escherichia coli D21): 200 µM
Minimal Inhibitory Concentration B. megaterium (Bm11) (Bacillus megaterium Bm11): 50 µM
% hemolysis at 100 μM [1]: 0%

CC(C)C[C@H](NC(=O)[C@@H](CC(C)C)NC(=O)[C@H](CCCCN)NC(=O)[C@@H](CC(C)C)NC(=O)[C@H](CC(C)C)NC(=O)[C@@H](CC(C)C)NC(=O)[C@@H](N)CCCCN)C(=O)N[C@@H](CCCCN)C(=O)O [Peptide 29, [D]-L^2,4,6-K3L5] (H-K[dL]L[dL]K[dL]LK-OH)
Minimal Inhibitory Concentration E. coli (D21) (Escherichia coli D21): 3 µM
Minimal Inhibitory Concentration B. megaterium (Bm11) (Bacillus megaterium Bm11): 3 µM
% hemolysis at 100 μM [1]: 0%

C[C@H](NC(=O)[C@H](C)NC(=O)[C@H](CCCCN)NC(=O)[C@@H](C)NC(=O)[C@@H](C)NC(=O)[C@H](C)NC(=O)[C@@H](N)CCCCN)C(=O)N[C@H](C)C(=O)N[C@@H](CCCCN)C(=O)N[C@H](C)C(=O)N[C@@H](C)C(=O)N[C@@H](CCCCN)C(N)=O [Peptide 33, [D]-A^3,4,8,10-K4A8] (H-KA[dA][dA]KAA[dA]K[dA]AK-NH2)
Minimal Inhibitory Concentration E. coli (D21) (Escherichia coli D21): 12 µM
Minimal Inhibitory Concentration B. megaterium (Bm11) (Bacillus megaterium Bm11): 1 µM
% hemolysis at 100 μM [1]: 0%

CC(C)[C@H](NC(=O)[C@H](CCCCN)NC(=O)[C@H](NC(=O)[C@H](NC(=O)[C@@H](NC(=O)[C@@H](N)CCCCN)C(C)C)C(C)C)C(C)C)C(=O)N[C@H](C(=O)N[C@@H](C(=O)N[C@@H](CCCCN)C(=O)N[C@@H](C(=O)N[C@H](C(=O)N[C@@H](CCCCN)C(N)=O)C(C)C)C(C)C)C(C)C)C(C)C [Peptide 34, [D]-V^3,4,8,10-K4V8] (H-KV[dV][dV]KVV[dV]K[dV]VK-NH2)
Minimal Inhibitory Concentration E. coli (D21) (Escherichia coli D21): 3.5 µM
Minimal Inhibitory Concentration B. megaterium (Bm11) (Bacillus megaterium Bm11): 0.8 µM
% hemolysis at 100 μM [1]: 0%

CC[C@H](C)[C@@H]1NC(=O)[C@H](CCCCN)NC(=O)[C@H]2CCCN2C(=O)[C@H]([C@@H](C)CC)NC(=O)[C@H](CC(C)C)NC(=O)[C@H](C)NC(=O)[C@H](Cc2ccccc2)NC(=O)[C@H](Cc2ccccc2)NC(=O)CNC(=O)[C@H](CCCCN)NC(=O)[C@@H](N)CSSC[C@@H](C(=O)O)NC(=O)[C@H](C(C)C)NC(=O)[C@H](C)NC(=O)[C@H](CO)NC(=O)[C@@H](CC(C)C)NC(=O)[C@@H](CC(C)C)NC(=O)[C@H]([C@@H](C)O)NC(=O)[C@H](CCCCN)NC(=O)[C@H](Cc2ccccc2)NC(=O)[C@H](CC(C)C)NC(=O)[C@@H]2CCCN2C(=O)[C@H](CO)NC(=O)[C@H](CO)NC(=O)[C@H]([C@@H](C)CC)NC1=O [Peptide 86, Cyclic K^1[D]P^7L^18L^19[1-22]-par]
Minimal Inhibitory Concentration E. coli (D21) (Escherichia coli D21): 30 µM
Minimal Inhibitory Concentration B. megaterium (Bm11) (Bacillus megaterium Bm11): 10 µM
% hemolysis at 100 μM [1]: 0%

CC[C@H](C)[C@@H]1NC(=O)[C@H](CCCCN)NC(=O)[C@H]2CCCN2C(=O)[C@H]([C@@H](C)CC)NC(=O)[C@H](CC(C)C)NC(=O)[C@H](C)NC(=O)[C@H](Cc2ccccc2)NC(=O)[C@H](Cc2ccccc2)NC(=O)CNC(=O)[C@H](CCCCN)NC(=O)[C@H](CCCCN)NC(=O)[C@@H](N)CSSC[C@@H](C(=O)O)NC(=O)[C@H](C(C)C)NC(=O)[C@H](C)NC(=O)[C@H](CO)NC(=O)[C@@H](CC(C)C)NC(=O)[C@@H](CC(C)C)NC(=O)[C@H]([C@@H](C)O)NC(=O)[C@H](CCCCN)NC(=O)[C@H](Cc2ccccc2)NC(=O)[C@H](CC(C)C)NC(=O)[C@@H]2CCCN2C(=O)[C@H](CO)NC(=O)[C@H](CO)NC(=O)[C@H]([C@@H](C)CC)NC1=O [Peptide 87, Cyclic K^1K^2[D]P^7L^18L^19[1-22]-par]
Minimal Inhibitory Concentration E. coli (D21) (Escherichia coli D21): 15 µM
Minimal Inhibitory Concentration B. megaterium (Bm11) (Bacillus megaterium Bm11): 6 µM
% hemolysis at 100 μM [1]: 0%

Source: US7001983B1, “Antipathogenic synthetic peptides and compositions comprising them” (priority 1997, dated 2006)
